Measured values as given in patent publication US20110086759A1, “CHEMICAL COMPOUNDS” (SYNGENTA CROP PROTECTION, INC., priority 2007, published 2011).

Tests used:
Format in all cases: in vivo
[1] = tested on: Alopecurus myosuroides (ALOMY); test: Pre-emergence biological efficacy, glasshouse pot test; conditions: 312 h, pre-emergence, 1,000 g/ha, evaluated after 13 days (100=total damage; 0=no damage), read-out: Percentage damage ALOMY
Procedure, shortened: (§1)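 Glasshouse pot test: spray on soil one day after sowing, 1000 or 250 g/ha. Conditions 24/16 °C day/night, 14 h light, 65% humidity. Plant damage scored 0–100 at 13 days.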

[2] = tested on: Ipomea hederaceae (IPOHE); test: as above; conditions: Ipomoea hederacea, 312 h; pre-emergence, 1,000 g/ha, evaluated after 13 days (100=total damage; 0=no damage); read-out: Percentage damage IPOHE
Procedure, shortened: as §1

[3] = tested on: Amaranthus retoflexus (AMARE); test: as above; conditions: Amaranthus retroflexus, 312 h; pre-emergence, 1,000 g/ha, evaluated after 13 days (100=total damage; 0=no damage); read-out: Percentage damage AMARE
Procedure, shortened: as §1

Setaria faberi (SETFA) [4] = test: as above; conditions: 312 h, pre-emergence, 1,000 g/ha, evaluated after 13 days (100=total damage; 0=no damage), read-out: Percentage damage SETFA
Procedure, shortened: as §1

Solanum nigrum (SOLNI) [5] = test: as above; conditions: 312 h, pre-emergence, 1,000 g/ha, evaluated after 13 days (100=total damage; 0=no damage), read-out: Percentage damage SOLNI
Procedure, shortened: as §1

[6] = tested on: Echinochloa crus-galli (ECHCG); test: as above; conditions: 312 h, pre-emergence, 1,000 g/ha, evaluated after 13 days (100=total damage; 0=no damage), read-out: Percentage damage ECHCG
Procedure, shortened: as §1

[7] = tested on: Alopecurus myosuroides (ALOMY); test: Post-emergence biological efficacy, glasshouse pot test; conditions: 312 h, post-emergence, 1,000 g/ha, evaluated after 13 days (100=total damage; 0=no damage), read-out: Percentage damage caused to weed species, ALOMY
Procedure, shortened: (§2)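 Pot-grown weeds were sprayed 8 days after sowing with test compound in acetone/water (50:50) with 0.5% Tween 20 at 1000 or 250 g/ha. Glasshouse at 24/16° C day/night, 14 h light, 65% humidity. Damage scored 0-100 (100 = total damage) after 13 days.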

[8] = tested on: Ipomea hederaceae (IPOHE); test: as above; conditions: Ipomoea hederacea, 312 h; post-emergence, 1,000 g/ha, evaluated after 13 days (100=total damage; 0=no damage); read-out: Percentage damage caused to weed species, IPOHE
Procedure, shortened: as §2

[9] = tested on: Amaranthus retoflexus (AMARE); test: as above; conditions: Amaranthus retroflexus, 312 h; post-emergence, 1,000 g/ha, evaluated after 13 days (100=total damage; 0=no damage); read-out: Percentage damage caused to weed species, AMARE
Procedure, shortened: as §2

Setaria faberi (SETFA) [10] = test: as above; conditions: 312 h, post-emergence, 1,000 g/ha, evaluated after 13 days (100=total damage; 0=no damage), read-out: Percentage damage caused to weed species, SETFA
Procedure, shortened: as §2

Solanum nigrum (SOLNI) [11] = test: as above; conditions: 312 h, post-emergence, 1,000 g/ha, evaluated after 13 days (100=total damage; 0=no damage), read-out: Percentage damage caused to weed species, SOLNI
Procedure, shortened: as §2

[12] = tested on: Echinochloa crus-galli (ECHCG); test: as above; conditions: 312 h, post-emergence, 1,000 g/ha, evaluated after 13 days (100=total damage; 0=no damage), read-out: Percentage damage caused to weed species, ECHCG
Procedure, shortened: as §2

Row | Compound | pest or weed control at 1000 g/ha [1] [%] | pest or weed control at 1000 g/ha [2] [%] | pest or weed control at 1000 g/ha [3] [%] | pest or weed control at 1000 g/ha (Setaria faberi (SETFA) [4]) [%] | pest or weed control at 1000 g/ha (Solanum nigrum (SOLNI) [5]) [%] | pest or weed control at 1000 g/ha [6] [%] | pest or weed control at 1000 g/ha [7] [%] | pest or weed control at 1000 g/ha [8] [%] | pest or weed control at 1000 g/ha [9] [%] | pest or weed control at 1000 g/ha (Setaria faberi (SETFA) [10]) [%] | pest or weed control at 1000 g/ha (Solanum nigrum (SOLNI) [11]) [%] | pest or weed control at 1000 g/ha [12] [%]
1 | COC(=O)c1nc(C2CC2)nc(NCCC2OCCO2)c1Cl [Compound 4-216, 5-Chloro-2-cyclopropyl-4-[2-(1,3-dioxolan-2-yl)ethylamino]-6-methoxycarbonyl-pyrimidine] | 30 | 100 | 100 | 40 | 90 | 40 | 20 | 80 | 100 | 60 | 70 | 20
2 | COC(=O)c1nc(C2CC2)nc(NCCN2CCNC2=O)c1Cl [Compound 4-219, 5-Chloro-2-cyclopropyl-6-methoxycarbonyl-4-[2-(2-oxo-imidazolidin-1-yl)ethylamino]-pyrimidine] | 0 | 90 | 60 | 0 | 30 | 0 | 0 | 50 | 50 | 10 | 50 | 0
3 | COC(=O)c1nc(C2CC2)nc(NCCN2CCOCC2)c1Cl [Compound 4-220, 5-Chloro-2-cyclopropyl-6-methoxycarbonyl-4-[2-(morpholin-4-yl)ethylamino]-pyrimidine] | 0 | 50 | 60 | 0 | 40 | 30 | 20 | 100 | 100 | 40 | 90 | 30
4 | COC(=O)c1nc(C2CC2)nc(NCCc2ccccc2)c1Cl [Compound 4-221, 5-Chloro-2-cyclopropyl-6-methoxycarbonyl-4-(2-phenylethyl-amino)-pyrimidine] | 60 | 100 | 100 | 60 | 90 | 60 | 30 | 100 | 100 | 70 | 80 | 40
5 | COC(=O)c1nc(C2CC2)nc(NCCc2ccc(S(N)(=O)=O)cc2)c1Cl [Compound 4-222, 4-[2-(4-Amino-sulphonylphenyl)-ethylamino]-5-chloro-2-cyclo-propyl-6-methoxy-carbonylpyrimidine] | 0 | 10 | 30 | 0 | 0 | 0 | 0 | 60 | 30 | 0 | 20 | 0
6 | COC(=O)c1nc(C2CC2)nc(NCCc2cccs2)c1Cl [Compound 4-224, 5-Chloro-2-cyclopropyl-6-methoxycarbonyl-4-[2-(thiophen-2-yl)ethylamino]-pyrimidine] | 0 | 70 | 20 | 0 | 30 | 0 | 10 | 50 | 100 | 30 | 70 | 10
